Experiment [1] concerns the target T1, FXR-LBD (Homo sapiens, UniProt Q96RI1).
T1 construct: 10 nM of purified GST-tagged FXR-LBD protein
T1 sequence (Q96RI1 262-486 limits assumed): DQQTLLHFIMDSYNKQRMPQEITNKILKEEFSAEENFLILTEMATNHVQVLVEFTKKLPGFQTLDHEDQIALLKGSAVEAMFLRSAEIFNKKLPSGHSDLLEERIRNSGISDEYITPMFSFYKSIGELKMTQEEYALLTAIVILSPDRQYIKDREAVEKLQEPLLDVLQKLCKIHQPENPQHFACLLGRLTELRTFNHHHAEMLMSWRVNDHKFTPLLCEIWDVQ
Kind of experiment: Alphascreen coactivator recruitment assay, FXR-LBD with SRC-1 peptide. The experiment is classed as biochemical. To be noted: ligand at 2 μM, effect of 6 set as 100%. As for the experimental part: Figure 7 Coactivator recruitment assay measuring a direct interaction of FXR with SRC-1. Anti-GST-coated acceptor beads captured GST-fusion FXR-LBD and the biotinylated-SRC-1 peptide was captured by the streptavidin donor beads. FXR-LBD recruited SRC-1 in the presence of ligand at 2 μM and, upon illumination at 680 nm, chemical energy is transferred from donor to acceptor beads across the complex streptavidin-donor/Src-1-biotin/ligand/GSTFXR-LBD/anti-GST-acceptor and a signal is produced. Results are expressed as percentage of the effect of 6 arbitrarily settled as 100%. NT is referred to the experiment carried out in absence of ligand. Results are expressed as mean ± standard error.
The relative potency of selected members of this novel family was then investigated by a detailed measurement of concentration-response curve of the 3-deoxy sulfate derivative 9, the corresponding carboxylic acid 10, and the 3β-hydroxyl alcohol 15 and carboxylic acid derivative 17, all sharing the 6α/7α configuration, on FXR transactivation. […] In this assay, the ligand induces the recruitment of the coactivator to the LBD of hFXR.
Anti-GST-coated acceptor beads were used to capture the GST-fusion FXR-LBD, whereas the biotinylated-SRC-1 peptide was captured by the streptavidin donor beads. Upon illumination at 680 nm, chemical energy is transferred from donor to acceptor beads across the complex streptavidin-donor/Src-1-biotin/GSTFXR-LBD/anti-GST-acceptor and a signal is produced. The assay was performed in white, low-volume, 384-well Optiplates (PerkinElmer) using a final volume of 25 μL containing final concentrations of 10 nM of purified GST-tagged FXR-LBD protein, 30 nM biotinylated Src-1 peptide, 20 μg/mL anti-GST acceptor beads acceptor beads, and 10 μg/mL of streptavidin donor bead (PerkinElmer). The assay buffer contained 50 mM Tris (pH 7.4), 50 mM KCl, 0.1% BSA, and 1 mM DTT. […] After the addition of the detection mix (acceptor and donor beads), the plates were incubated in the dark for 4 h at room temperature and then were read in an Envision microplate analyzer (PerkinElmer).
For orientation: Bead proximity is the source of the signal in Alpha formats.

Experiment [2] concerns FXR target genes (OSTα, SHP, BSEP). Kind of experiment: In vivo effect on FXR target genes in mouse liver (Real-Time PCR). More on the design: species or system C57BL6 mice. The following applies: mice, 15 mg/kg ip, 6 h, versus control mice. The method, then:
Figure 10 In vivo effect of 10 on FXR target genes. C57BL6 mice were administered with 10 (15 mg/Kg) for 6 h. After treatment liver were removed and the relative mRNA expression of OSTα, SHP and BSEP was assayed by quantitative Real-Time PCR. *p < 0.05 versus control mice.
C57BL6 mice were administered with compound 10 (15 mg/kg, ip). At 6 h post-treatment, livers and blood were collected.
Total RNA was extracted using the TRIzol reagent (Life Technologies). First, 1 μg of RNA was purified of the genomic DNA by DNase I treatment (Life Technologies) and random reverse-transcribed with Superscript II (Life Technologies) in a 20 μL reaction volume. Then 10 ng of cDNA was amplified in a final volume of 20 μL in a mix containing 200 nM of each sense/antisense primers and 10 μL of 2× SYBR Select Master mix (Life Technologies). RT-PCR reactions were performed in duplicate and the thermal cycling conditions were: 2 min at 95 °C, followed by 40 cycles of 95 °C for 20 s, 60 °C for 30 s on Step One Plus Instrument (ABI). The relative mRNA expression was calculated and expressed as 2^−(ΔΔCt). Sense and antisense primer sequences were the following: mouse GAPDH, […] and […]; mOSTα, […] and […]; mBSEP, […] and […]; mSHP, […] and […].
For orientation: Real-time PCR tracks product formation cycle by cycle.

“Also recorded” adds a separate entry of the source.

For `CC[C@H]1[C@@H](O)[C@@H]2[C@H](CC[C@]3(C)[C@@H]([C@H](C)CCC(=O)O)CC[C@@H]23)[C@@]2(C)CCCC[C@@H]12` [compound 10, 6α-ethyl-7α-hydroxy-5β-cholan-24-oic acid], the “Recruitment of SRC-1 coactivator to FXR-LBD (in words)” value in experiment [1] was “very potent activity in the recruitment of SRC-1 co-activator”. Moreover, in experiment [2], the “Relative mRNA expression of BSEP in liver” value is on record as “significantly up-regulated; also recorded: increased the expression”, the “Relative mRNA expression of OSTα in liver” value is recorded as “significantly up-regulated; also recorded: increased the expression” and the “Relative mRNA expression of SHP in liver” value was “significantly up-regulated; also recorded: increased the expression”.

The record behind these values is publication PMC4704022, “Insights on FXR selective modulation. Speculation on bile acid chemical space in the discovery of potent and selective agonists” (Scientific Reports, 2016).
